Values quoted from earlier work as cited in patent US20250356483A1, “Quality Control Of In-Vitro Analysis Sample Output” (Sanofi, priority 2022, published 2025).

System: liver cells
Details: CPZ@60 micro moles

## CN(C)CCCN1c2ccccc2Sc2ccc(Cl)cc21 [CPZ, Chlorpromazine]
  known toxic effect of reference compound (positive control): toxic to liver cells and triggers cholestasis
